The source of these data is ChEMBL document CHEMBL3045122, “Synthesis, in vitro antimicrobial, antiproliferative, and QSAR studies of N-(substituted phenyl)-2/4-(1H-indol-3-ylazo)-benzamides” (Med Chem Res, 2013).

Where only a bound is given, the exact number is not on record here.

The test system of experiment [1] is Bacillus subtilis. The experiment can be described thus: Antibacterial activity against Bacillus subtilis assessed as growth inhibition after 24 hr by tube dilution method. It is filed as functional.
The test system of experiment [2] is Escherichia coli. The experiment can be described thus: Bactericidal activity against Escherichia coli. It is filed as functional.
Experiment [3] deals with Bacillus subtilis. The experiment can be described thus: Bactericidal activity against Bacillus subtilis. The experiment is classed as functional.
The subject of experiment [4] is Aspergillus niger. Kind of experiment: Ratio of MFC to MIC for Aspergillus niger. It is filed as functional.
Experiment [5] deals with Staphylococcus aureus. The experiment can be described thus: Ratio of MBC to MIC for Staphylococcus aureus. The experiment is classed as functional.
Experiment [6] relates to Bacillus subtilis. The experiment can be described thus: Ratio of MBC to MIC for Bacillus subtilis. It is filed as functional.
For experiment [7], the system named is MCF7. The experiment can be described thus: Cytotoxicity against Homo sapiens (human) MCF7 cells assessed as growth inhibition after 72 hr by MTT assay. It is filed as functional, cell-based. For orientation: Tetrazolium assays rely on reduction of a dye to a coloured formazan, in cell work by metabolically active cells.
The subject of experiment [8] is Staphylococcus aureus. The experiment can be described thus: Bactericidal activity against Staphylococcus aureus. The experiment is classed as functional.
Experiment [9] concerns Escherichia coli. Kind of experiment: Ratio of MBC to MIC for Escherichia coli. The experiment is classed as functional.
In experiment [10] the test system is Staphylococcus aureus. Kind of experiment: Antibacterial activity against Staphylococcus aureus assessed as growth inhibition after 24 hr by tube dilution method. It is filed as functional.
In experiment [11] the test system is Candida albicans. The experiment can be described thus: Fungicidal activity against Candida albicans. It is filed as functional.
For experiment [12], the system named is Aspergillus niger. The experiment can be described thus: Fungicidal activity against Aspergillus niger. The experiment is classed as functional.
In experiment [13] the test system is HCT-116. Kind of experiment: Cytotoxicity against Homo sapiens (human) HCT116 cells assessed as growth inhibition after 72 hr by MTT assay. It is filed as functional, cell-based.
Experiment [14] has as its system Candida albicans. Kind of experiment: Ratio of MFC to MIC for Candida albicans. The experiment is classed as functional.
Experiment [15] has as its system Aspergillus niger. Kind of experiment: Antifungal activity against Aspergillus niger assessed as growth inhibition after 7 days by tube dilution method. The experiment is classed as functional.
The test system of experiment [16] is P388. Kind of experiment: Cytotoxicity against Mus musculus (mouse) P388 cells assessed as growth inhibition after 72 hr by MTT assay. The experiment is classed as functional, cell-based.
For experiment [17], the system named is Escherichia coli. Kind of experiment: Antibacterial activity against Escherichia coli assessed as growth inhibition after 24 hr by tube dilution method. The experiment is classed as functional.
Experiment [18] deals with Candida albicans. Kind of experiment: Antifungal activity against Candida albicans assessed as growth inhibition after 48 hr by tube dilution method. The experiment is classed as functional.

Take `O=C(Nc1cccc([N+](=O)[O-])c1)c1ccc(/N=N\c2c[nH]c3ccccc23)cc1`: the “-logMIC” value amounted to 1.79 in [1]; 1.19 in experiment [10]; 1.49 in experiment [15]; 1.49 in experiment [17]; 1.49 in experiment [18]. The MBC in [2], in [3] and in experiment [8] was over 0.13 uM/ml each time. For the same compound, the Ratio in experiment [4], in experiment [5], in experiment [6], in experiment [9] and in [14] was 3 each time. For the same compound, the results for the IC50 in [7], in experiment [13] and in experiment [16] were 0.0519 uM/ml, 0.0701 uM/ml and 0.0519 uM/ml, respectively. Also, the MFC in [11] stood at 0.06 uM/ml; in experiment [12] it was 0.03 uM/ml.
Take `O=C(Nc1ccc([N+](=O)[O-])cc1)c1ccc(/N=N\c2c[nH]c3ccccc23)cc1`: the “-logMIC” value in [1] was determined as 1.49; in experiment [10] it was 1.79; in experiment [15], 1.49; in experiment [17] it was 1.79; in experiment [18], 1.49. Besides, the MBC in experiment [2], in experiment [3] and in [8] was over 0.13 uM/ml throughout. The Ratio in [4], in experiment [5], in experiment [6], in experiment [9] and in experiment [14] was 3 throughout. Besides, the IC50 amounted to 0.0545 uM/ml in experiment [7], 0.1558 uM/ml in experiment [13] and 0.0112 uM/ml in experiment [16]. In addition, the values for the MFC in experiment [11] and in [12] were 0.13 uM/ml and 0.03 uM/ml, respectively.
For `Cc1cccc(NC(=O)c2ccc(/N=N\c3c[nH]c4ccccc34)cc2)c1C`, the “-logMIC” value was determined as 1.47 in [1]; 1.77 in experiment [10]; 1.47 in experiment [15]; 1.47 in [17]; 1.47 in experiment [18]. Besides, the MBC in experiment [2], in [3] and in experiment [8] was over 0.14 uM/ml throughout. Also, the Ratio in [4], in [5], in experiment [6], in experiment [9] and in [14] was 3 throughout. Further, the IC50 in [7] was found to be 0.106 uM/ml; in experiment [13] it was 0.2717 uM/ml; in experiment [16], 0.0516 uM/ml. Further, the figures for the MFC in [11] and in experiment [12] were over 0.14 uM/ml and 0.03 uM/ml, respectively.
For the compound `Cc1ccccc1NC(=O)c1ccc(/N=N\c2c[nH]c3ccccc23)cc1`, the “-logMIC” value in experiment [1] came out at 1.45; in experiment [10] it was 1.15; in experiment [15], 1.45; in [17], 1.45; in [18], 1.45. Moreover, the MBC in experiment [2], in experiment [3] and in experiment [8] was over 0.14 uM/ml in each case. The Ratio in [4], in experiment [5], in experiment [6], in experiment [9] and in experiment [14] was 3 each time. The IC50 is 0.0734 uM/ml in [7], 0.5085 uM/ml in [13] and “Not Active” in experiment [16]. Moreover, the MFC in [11] is on record as over 0.14 uM/ml; in experiment [12], 0.04 uM/ml.
With `O=C(Nc1ccc(Cl)cc1)c1ccc(/N=N\c2c[nH]c3ccccc23)cc1`, the “-logMIC” value in [1], in experiment [10], in experiment [15], in [17] and in experiment [18] was 1.48 in each case. Moreover, the MBC in experiment [2], in experiment [3] and in [8] was over 0.13 uM/ml throughout. The Ratio in experiment [4], in experiment [5], in experiment [6], in experiment [9] and in experiment [14] was 3 each time. In addition, the IC50 in experiment [7] turned out to be 0.1067 uM/ml; in [13], 0.1867 uM/ml; in [16] it was 0.08 uM/ml. Further, the values for the MFC in experiment [11] and in experiment [12] were over 0.13 uM/ml and 0.13 uM/ml, respectively.
Consider `O=C(Nc1ccccc1Cl)c1ccc(/N=N\c2c[nH]c3ccccc23)cc1`, for which the “-logMIC” value in experiment [1] was 1.48; in experiment [10], 1.18; in [15], 1.48; in experiment [17], 1.78; in [18], 1.48. The MBC in experiment [2], in experiment [3] and in experiment [8] was over 0.13 uM/ml throughout. The Ratio in experiment [4], in experiment [5], in [6], in [9] and in experiment [14] was 3 throughout. Further, the results for the IC50 in experiment [7], in experiment [13] and in experiment [16] were 0.112 uM/ml, 0.12 uM/ml and “Not Active”, respectively. The MFC is given as over 0.13 uM/ml in experiment [11] and 0.03 uM/ml in experiment [12].
For the compound `Cc1ccc(NC(=O)c2ccc(/N=N\c3c[nH]c4ccccc34)cc2)c(C)c1`, the “-logMIC” value in experiment [1], in experiment [10], in experiment [15], in experiment [17] and in experiment [18] was 1.47 each time. Moreover, the MBC in [2], in [3] and in [8] was over 0.14 uM/ml each time. The Ratio in experiment [4], in experiment [5], in experiment [6], in experiment [9] and in experiment [14] was 3 each time. Besides, the results for the IC50 in [7], in experiment [13] and in experiment [16] were 0.087 uM/ml, 0.0761 uM/ml and 0.1902 uM/ml, respectively. For the same compound, the MFC came to 0.14 uM/ml in [11] and 0.03 uM/ml in experiment [12].
In the case of `O=C(Nc1ccccc1[N+](=O)[O-])c1ccc(/N=N\c2c[nH]c3ccccc23)cc1`, the “-logMIC” value turned out to be 1.79 in [1]; 1.49 in [10]; 1.49 in [15]; 1.49 in [17]; 1.49 in [18]. Moreover, the MBC in [2], in experiment [3] and in [8] was over 0.13 uM/ml each time. The Ratio in experiment [4], in [5], in experiment [6], in [9] and in experiment [14] was 3 throughout. The IC50 in experiment [7] stood at 0.1013 uM/ml; in experiment [13], 0.2078 uM/ml; in experiment [16], 0.0779 uM/ml. Further, the MFC is given as over 0.13 uM/ml in experiment [11] and 0.03 uM/ml in experiment [12].
For `O=c1[nH]cc(F)c(=O)[nH]1` [FLUOROURACIL], the IC50 in experiment [7] was 0.0052 uM/ml; in [13], 0.0462 uM/ml; in experiment [16] it was 0.0219 uM/ml.
As for `Cc1ccc(C)c(NC(=O)c2ccc(/N=N\c3c[nH]c4ccccc34)cc2)c1`, the “-logMIC” value in [1] was determined as 1.47; in experiment [10] it was 1.47; in experiment [15] it was 1.47; in experiment [17], 1.77; in experiment [18], 1.47. In addition, the MBC in experiment [2], in experiment [3] and in experiment [8] was over 0.14 uM/ml in each case. Further, the Ratio in [4], in [5], in experiment [6], in experiment [9] and in experiment [14] was 3 in each case. The IC50 in experiment [7] is 0.0299 uM/ml; in experiment [13] it was 0.5435 uM/ml; in [16], “Not Active”. In addition, the MFC stood at 0.07 uM/ml in [11] and 0.03 uM/ml in [12].
For the compound `COc1ccccc1NC(=O)c1ccc(/N=N\c2c[nH]c3ccccc23)cc1`, the “-logMIC” value in experiment [1], in experiment [10], in experiment [15], in experiment [17] and in experiment [18] was 1.47 throughout. Besides, the MBC in experiment [2], in [3] and in experiment [8] was over 0.13 uM/ml each time. Besides, the Ratio in experiment [4], in experiment [5], in experiment [6], in experiment [9] and in [14] was 3 in each case. Further, the IC50 in [7] is reported as 0.0865 uM/ml; in experiment [13] it was 0.1216 uM/ml; in experiment [16], “Not Active”. The MFC in experiment [11] turned out to be 0.03 uM/ml; in [12], 0.07 uM/ml.
